4 compounds from patent US8916709B2, “1,2,4-oxadiazole and 1,2,4-thiadiazole β-lactamase inhibitors” (priority 2012, dated 2014) can be followed below.

The subject of assay [1] is bacterial strains that express OXA-15 β-lactamases. The experiment in a line: Standard BLI potentiation MIC / synergy MIC assays, strains expressing OXA-15. The format is cell-based, E. coli. The note with it: in combination with a β-lactam; versus Avibactam (comparator compound CCC). The text has this:
(§1) A set of β-lactamase expressing isogenic E. coli strains was constructed by cloning a β-lactamase gene into a customized derivative of pBR322 (GenBank Accession Number J01749) and transforming the engineered plasmids into E. coli. The NdeI restriction site within the plasmid backbone of pBR322 was removed to generate pBR322ΔNdeI. The pBR322ΔNdeI vector itself, minus the blaTEM-1 gene, was amplified using two primers: (1) pBR-Pbla 5′-[…]-3, SEQ ID 1, a primer with an engineered NdeI restriction site at the 3′ end of the blaTEM-1 promoter and (2) pBR-vec-1 5′-[…]-3′, SEQ ID 2, a primer with an engineered BamHI restriction site at the 3′ end of the blaTEM-1 open reading frame. The chloramphenicol resistance gene, cat, was generated by PCR amplification from pKD3 (GenBank Accession Number AY048742) using primers with an engineered NdeI restriction site at the 5′ end (Pbla-cat 5′-[…]-3′, SEQ ID 3) and an engineered BamHI restriction site at the 3′ end (Vec-1-cat 5′-[…]-3′, SEQ ID 4) of the resistance gene. The two PCR products, pBR322ΔNdeI and cat were ligated together generating pBR-CBST (pBR322ΔNdeI ΔTEM-1::cat Seq. ID 5) which retains both the pBR322 tetracycline resistance cassette, tetA, and the plasmid origin of replication but the blaTEM-1 gene was replaced by the cat gene.
(§2) Using this engineering strategy a number of plasmids producing β-lactamase genes from different classes (see below) were generated using synthetic genes with an engineered NdeI restriction site at the 5′ end and BamHI restriction site at the 3′ end of each gene (GenScript). Both the synthetic β-lactamase genes and cat gene were ligated into the NdeI/BamHI sites of the pBR322ΔNdeI PCR product and transformed into electrocompetent E. coli ElectroMax DH10B (Invitrogen/Life Technologies). E. coli DH10B harboring the recombinant plasmids were selected on LB agar (supplemented with 25 μg/mL tetracycline) and single isolated colonies were then inoculated into 5 mL LB media (supplemented with 25 μg/mL tetracycline), and incubated at 37° C. with aeration (250 rpm) for 18 hrs. The cultures were frozen back at −80° C. in 20% glycerol. The DNA sequence of the cloned β-lactamase genes was confirmed. The β-lactamase gene expression in the recombinant E. coli strains was driven by the blaTEM-1 promoter in the pBR-CBST plasmid and was characterized by MIC profiling of the E. coli recombinant strains against comparator β-lactam/BLI combinations in broth microdilution assay. […]

For assay [2], the system named is bacterial strains that express KPC β-lactamases. The experiment in a line: Standard BLI potentiation MIC / synergy MIC assays, strains expressing KPC. The format is cell-based. As to conditions: in combination with a β-lactam; versus Avibactam.
Description: as §1, §2

Counter-ions that a name gives are not always drawn.

With `O=C1N2C[C@@H](CC[C@H]2c2ncno2)N1OS(=O)(=O)O` [Compound 801, (2S,5R)-2-(1,2,4-oxadiazol-5-yl)-7-oxo-1,6-diazabicyclo[3.2.1]octan-6-yl hydrogen sulfate], the “activity against strains that express OXA-15 β-lactamases compared with Avibactam” value in assay [1] is listed as “more active than Avibactam”. In addition, the “activity / spectrum of activity against strains that express KPC β-lactamases compared with Avibactam” value (“activity / spectrum … compared with Avibactam” for short) in assay [2] is “more active than, and/or show a better spectrum of activity than Avibactam”.

Take `CCCC[N+](CCCC)(CCCC)CCCC.Nc1noc([C@@H]2CC[C@@H]3CN2C(=O)N3OS(=O)(=O)[O-])n1` [Compound 802, (2S,5R)-2-(3-amino-1,2,4-oxadiazol-5-yl)-7-oxo-1,6-diaza-bicyclo[3.2.1]octan-6-yl tetrabutylaminooxy sulfonate]: in assay [1], the “activity against strains that express OXA-15 β-lactamases compared with Avibactam” value was “more active than Avibactam”. Moreover, in assay [2], the “activity / spectrum … compared with Avibactam” value is “more active than, and/or show a better spectrum of activity than Avibactam”.

Take `O=C1N2C[C@@H](CC[C@H]2c2ncon2)N1OS(=O)(=O)O` [Compound 804, (2S,5R)-2-(1,2,4-oxadiazol-3-yl)-7-oxo-1,6-diazabicyclo[3.2.1]octan-6-yl hydrogen sulfate]: the “activity against strains that express OXA-15 β-lactamases compared with Avibactam” value in assay [1] is “more active than Avibactam”. Besides, in assay [2], the “activity / spectrum … compared with Avibactam” value is recorded as “more active than, and/or show a better spectrum of activity than Avibactam”.

Consider `Nc1nc([C@@H]2CC[C@@H]3CN2C(=O)N3OS(=O)(=O)O)no1` [Compound 805, (2S,5R)-2-(5-amino-1,2,4-oxadiazol-3-yl)-7-oxo-1,6-diazabicyclo[3.2.1]octan-6-yl hydrogen sulfate], for which the “activity against strains that express OXA-15 β-lactamases compared with Avibactam” value in assay [1] is reported as “more active than Avibactam”. For the same compound, the “activity / spectrum … compared with Avibactam” value in assay [2] is reported as “more active than, and/or show a better spectrum of activity than Avibactam”.
